# Measurements: paper PMC10247784, “Physiological activation of human and mouse bitter taste receptors by bile acids” (Communications Biology, 2023)
# Molecular target: T1, mouse Tas2r126 (Mus musculus, UniProt P59532)
# T1 construct: expressed in transfected cells; host or cells: HEK293T-Gα16gust44
# T1 sequence (P59532 1-308): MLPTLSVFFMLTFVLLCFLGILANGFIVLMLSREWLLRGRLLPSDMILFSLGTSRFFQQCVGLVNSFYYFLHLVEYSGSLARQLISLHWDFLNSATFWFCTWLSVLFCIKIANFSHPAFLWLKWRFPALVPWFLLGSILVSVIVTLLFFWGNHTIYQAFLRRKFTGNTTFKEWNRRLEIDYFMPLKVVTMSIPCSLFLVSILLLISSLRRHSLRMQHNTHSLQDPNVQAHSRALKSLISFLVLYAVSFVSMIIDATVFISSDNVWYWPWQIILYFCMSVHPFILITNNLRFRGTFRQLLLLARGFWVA
# Experiment: Calcium imaging assay (FLIPR), HEK293T-Gα16gust44 cells transfected with mouse Tas2r126
# Format: cell-based
# Conditions: for Δ F/F: Tas2r126
# Method: This set of bile acids was chosen because of their commercial availability in high purities, their diversity within the class of bile acids and their previous detection and quantitation in human blood. Stock solutions were prepared in DMSO.
# As basal growth medium for the HEK293T-Gα16gust44 cell line[17],[59] served Dulbecco’s modified eagle medium (DMEM) (Thermo Fisher Scientific, Darmstadt, Germany) supplemented with 10 % fetal bovine serum (Sigma-Aldrich, Steinheim, Germany), 2 mM L-glutamine (Sigma-Aldrich, Steinheim, Germany), 100 units/ml penicillin (Sigma Aldrich, Steinheim, Germany) and 100 µg/ml streptomycin (Sigma Aldrich, Steinheim, Germany). Growth conditions were 37 °C, 5 % CO2 and saturated air-humidity[60].
# HEK293T-Gα16gust44 cells were seeded on poly-D-lysine (10 µg/ml) coated 96-well plates to reach a confluence of 40-60 % the next day. For transient transfection 150 ng of plasmid DNA containing the receptor of interest and 0.3 µl lipofectamine 2000 (Thermo Fisher Scientific, Darmstadt, Germany) per well were used and transfection took place according to the manual of lipofectamine 2000. […] The empty vector DNA (mock) was transfected as negative control[14],[41].
# Cells were loaded using the calcium-sensitive fluorescent dye Fluo-4-AM (Abcam, Cambridge, Great Britain) in the presence of 2.5 mM probenecid (Sigma-Aldrich, Steinheim, Germany) the day after transfection[13],[41]. 1 h after loading, cells were washed with C1 buffer using a BioTek Cell Washer, incubated in the dark for half an hour and washed again. For automated agonist application and measurement of fluorescence changes, a FLIPR^TETRA device (Molecular Devices, San José, United States) was used. Viability of cells was tested by application of 100 nM Somatostatin 14 (Bachem, Bubendorf, Switzerland)[42].
# Measured data were negative control corrected by subtracting the signal of the mock-transfected cells and exported to Microsoft Excel using the FLIPR software ScreenWorks 4.2. In Microsoft Excel software, standardization of maximum fluorescence intensities to the basal fluorescence and normalization to the buffer-only control was done to calculate the relative fluorescence changes (ΔF/F).
# Initial screening experiments performed in duplicate wells were confirmed by at least one replication and representative traces were selected for display. All dose-response relationships were determined by three independent experiments (biological replicates) performed in duplicates (technical replicates). Threshold concentrations, defined as lowest substance concentrations leading to statistically significant elevated fluorescence changes in receptor-transfected cells compared with empty vector-transfected cells, were determined using SigmaPlot with Student’s t-test to evaluate statistical significance (p < 0.01).
compound,measurement,setting,value
"C[C@H](CCC(=O)NCC(=O)O)[C@H]1CC[C@H]2[C@@H]3[C@H](O)C[C@@H]4C[C@H](O)CC[C@]4(C)[C@H]3C[C@H](O)[C@]12C [Glycocholic Acid, glycocholic acid]",Δ F/F,"conc. 0,01 mM",0.008892
same,Δ F/F,"conc. 0,1 mM",0.01338
same,Δ F/F,"conc. 0,03 mM",0.009319
same,Δ F/F,"conc. 0,3 mM",0.02767
same,Δ F/F,"conc. 0,001 mM",0.01077
same,Δ F/F,conc. 1 mM,0.17
same,Δ F/F,"conc. 0,003 mM",0.01208
same,RLU,Time 0 s,0 RLU
same,RLU,Time 2 s,-8.029 RLU
same,RLU,Time 4 s,1.1384 RLU
same,RLU,Time 6 s,10.4148 RLU
same,RLU,Time 8 s,-13.1228 RLU
same,RLU,Time 12 s,17.4885 RLU
same,RLU,Time 14 s,-0.7257 RLU
same,RLU,Time 16 s,-10.5283 RLU
same,RLU,Time 18 s,16.8146 RLU
same,RLU,Time 18.781 s,23.6211 RLU
same,RLU,Time 20.781 s,-40.338 RLU
same,RLU,Time 22.781 s,22.3326 RLU
same,RLU,Time 24.781 s,63.7084 RLU
same,RLU,Time 26.781 s,76.1804 RLU
same,RLU,Time 28.781 s,137.207 RLU
same,RLU,Time 30.781 s,214.617 RLU
same,RLU,Time 32.781 s,318.834 RLU
same,RLU,Time 34.781 s,384.223 RLU
same,RLU,Time 36.781 s,455.203 RLU
same,RLU,Time 38.781 s,531.38 RLU
same,RLU,Time 40.781 s,571.264 RLU
same,RLU,Time 42.781 s,599.999 RLU
same,RLU,Time 44.781 s,648.8 RLU
same,RLU,Time 46.781 s,709.576 RLU
same,RLU,Time 48.781 s,742.486 RLU
same,RLU,Time 50.781 s,750.019 RLU
same,RLU,Time 52.781 s,771.673 RLU
same,RLU,Time 54.781 s,762.339 RLU
same,RLU,Time 56.781 s,801.528 RLU
same,RLU,Time 58.781 s,778.328 RLU
same,RLU,Time 60.781 s,814.918 RLU
same,RLU,Time 62.781 s,813.898 RLU
same,RLU,Time 64.781 s,822.442 RLU
same,RLU,Time 66.781 s,857.883 RLU
same,RLU,Time 68.781 s,851.231 RLU
same,RLU,Time 70.781 s,849.562 RLU
same,RLU,Time 72.781 s,871.931 RLU
same,RLU,Time 74.781 s,863.674 RLU
same,RLU,Time 76.781 s,844.593 RLU
same,RLU,Time 78.781 s,886.207 RLU
same,RLU,Time 80.781 s,865.546 RLU
same,RLU,Time 82.781 s,883.065 RLU
same,RLU,Time 84.781 s,898.032 RLU
same,RLU,Time 86.781 s,896.748 RLU
same,RLU,Time 88.781 s,900.918 RLU
same,RLU,Time 90.781 s,874.944 RLU
same,RLU,Time 92.781 s,885.691 RLU
same,RLU,Time 94.781 s,894.456 RLU
same,RLU,Time 96.781 s,901.176 RLU
same,RLU,Time 98.781 s,886.538 RLU
same,RLU,Time 100.781 s,892.555 RLU
same,RLU,Time 102.781 s,881.874 RLU
same,RLU,Time 104.781 s,894.645 RLU
same,RLU,Time 106.781 s,887.982 RLU
same,RLU,Time 108.781 s,886.297 RLU
same,RLU,Time 110.781 s,884.059 RLU
same,RLU,Time 112.781 s,887.824 RLU
same,RLU,Time 114.781 s,848.107 RLU
same,RLU,Time 116.781 s,861.685 RLU
same,RLU,Time 118.781 s,828.869 RLU
same,RLU,Time 120.781 s,825.037 RLU
same,RLU,Time 122.781 s,836.581 RLU
same,RLU,Time 124.781 s,866.188 RLU
same,RLU,Time 126.781 s,858.575 RLU
same,RLU,Time 128.781 s,826.803 RLU
same,RLU,Time 130.781 s,818.964 RLU
same,RLU,Time 132.781 s,847.33 RLU
same,RLU,Time 134.781 s,852.99 RLU
same,RLU,Time 136.781 s,809.769 RLU
same,RLU,Time 137.563 s,804.878 RLU
same,RLU,Time 143.563 s,793.514 RLU
same,RLU,Time 149.563 s,748.056 RLU
same,RLU,Time 155.563 s,797.54 RLU
same,RLU,Time 161.563 s,777.219 RLU
same,RLU,Time 167.563 s,736.981 RLU
same,RLU,Time 173.563 s,734.04 RLU
same,RLU,Time 179.563 s,691.98 RLU
same,RLU,Time 185.563 s,705.69 RLU
same,RLU,Time 191.563 s,730.013 RLU
same,RLU,Time 197.563 s,719.476 RLU
same,RLU,Time 203.563 s,676.213 RLU
same,RLU,Time 209.563 s,680.042 RLU
same,RLU,Time 215.563 s,670.332 RLU
same,RLU,Time 221.563 s,696.914 RLU
same,RLU,Time 227.563 s,687.176 RLU
same,RLU,Time 233.563 s,674.703 RLU
same,RLU,Time 239.563 s,658.755 RLU
same,RLU,Time 245.563 s,686.39 RLU
same,RLU,Time 293.563 s,673.116 RLU
same,RLU,Time 299.563 s,656.796 RLU
same,RLU,Time 305.563 s,663.675 RLU
same,RLU,Time 311.563 s,633.551 RLU
same,RLU,Time 317.563 s,673.002 RLU
same,RLU,Time 323.563 s,666.023 RLU
same,RLU,Time 329.563 s,652.752 RLU
same,RLU,Time 335.563 s,658.256 RLU
same,RLU,Time 341.563 s,702.617 RLU
same,RLU,Time 347.563 s,659.503 RLU
same,RLU,Time 353.563 s,654.507 RLU
same,RLU,Time 359.563 s,650.344 RLU
same,Activation threshold concentration Tas2r126,p < 0.01 vs empty vector,100 µM
